The values that follow come from ChEMBL document CHEMBL4002634, “Benzoflavones as cholesterol esterase inhibitors: Synthesis, biological evaluation and docking studies” (Bioorg Med Chem Lett, 2017).

Molecules are shown by their SMILES. The source made the active and inactive calls. The calls are words filed in the database; no cut-off is given here.

Experiment [1] addresses T1, Carboxylic ester hydrolase (Sus scrofa) (UniProt A0A286ZKB1).
T1 sequence (whole entry): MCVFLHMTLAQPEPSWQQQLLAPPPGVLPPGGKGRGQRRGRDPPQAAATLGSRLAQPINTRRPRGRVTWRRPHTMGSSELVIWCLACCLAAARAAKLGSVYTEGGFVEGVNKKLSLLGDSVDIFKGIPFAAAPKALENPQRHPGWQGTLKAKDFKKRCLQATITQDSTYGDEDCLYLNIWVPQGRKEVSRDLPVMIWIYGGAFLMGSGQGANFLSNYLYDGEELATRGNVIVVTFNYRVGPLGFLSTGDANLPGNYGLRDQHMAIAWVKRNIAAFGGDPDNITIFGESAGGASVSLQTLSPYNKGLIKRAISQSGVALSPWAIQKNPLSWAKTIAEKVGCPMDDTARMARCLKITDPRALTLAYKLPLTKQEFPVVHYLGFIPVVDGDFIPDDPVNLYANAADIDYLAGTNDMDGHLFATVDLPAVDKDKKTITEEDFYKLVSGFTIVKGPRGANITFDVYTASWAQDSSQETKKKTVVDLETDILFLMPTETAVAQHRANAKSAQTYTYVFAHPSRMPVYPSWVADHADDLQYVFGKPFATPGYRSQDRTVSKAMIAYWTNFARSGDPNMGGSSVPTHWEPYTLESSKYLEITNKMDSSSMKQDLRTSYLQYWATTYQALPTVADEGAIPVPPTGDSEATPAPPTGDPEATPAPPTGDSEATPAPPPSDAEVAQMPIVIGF
In words: Inhibition of porcine cholesterol esterase at 1 nM using para-nitrophenyl butyrate as substrate after 5 mins in presence of sodium taurocholate by spectrophotometric method relative to control.

The target in experiment [2] is T1, Carboxylic ester hydrolase (Sus scrofa). In words: Inhibition of porcine cholesterol esterase at 5 nM using para-nitrophenyl butyrate as substrate after 5 mins in presence of sodium taurocholate by spectrophotometric method relative to control.
The target is the same in experiment [3]. The experiment can be described thus: Inhibition of porcine cholesterol esterase at 10 nM using para-nitrophenyl butyrate as substrate after 5 mins in presence of sodium taurocholate by spectrophotometric method relative to control.
Experiment [4] shares this target. The experiment can be described thus: Mixed-type inhibition of porcine cholesterol esterase at 1 to 50 nM using para-nitrophenyl butyrate as substrate after 5 mins in presence of sodium taurocholate by Line-weaver-Burk plot analysis.
For experiment [5] the target is unchanged. The experiment can be described thus: Inhibition of porcine cholesterol esterase at 25 nM using para-nitrophenyl butyrate as substrate after 5 mins in presence of sodium taurocholate by spectrophotometric method relative to control.
For experiment [6] the target is unchanged. In words: Inhibition of porcine cholesterol esterase at 50 nM using para-nitrophenyl butyrate as substrate after 5 mins in presence of sodium taurocholate by spectrophotometric method relative to control.
The target of experiment [7] is T2, Carboxylic ester hydrolase (Sus scrofa, UniProt A0A286ZKB1).
T2 sequence (A0A286ZKB1 whole entry): T1 sequence (whole entry)
The experiment can be described thus: Inhibition of porcine cholesterol esterase using para-nitrophenyl butyrate as substrate after 5 mins in presence of sodium taurocholate by spectrophotometric method.

Consider `O=c1cc(-c2cc(F)cc(F)c2)oc2c1ccc1ccccc12`, for which the inhibition (usually the drop in the measured response relative to a control, in per cent) in experiment [1] was found to be 60%; in experiment [2], 80%; in experiment [3], 90%; in experiment [5] it was 96%; in experiment [6], 100%. Moreover, the inhibition entry in experiment [4] is “Active”. Besides, the IC50 (as a rule, the midpoint of a concentration-inhibition curve) in experiment [7] (read-out: IC50) was 0.78 nM.
For `O=c1cc(-c2cc(F)ccc2F)oc2c1ccc1ccccc12`, the inhibition in experiment [1] amounted to 49%; in experiment [2], 65%; in experiment [3], 79%; in experiment [5], 84%; in experiment [6], 86%. For the same compound, in experiment [7] (read-out: IC50), the IC50 is 6.81 nM.
Regarding `O=c1cc(-c2cccc(Cl)c2Cl)oc2c1ccc1ccccc12`, the inhibition in experiment [1] was found to be 50%; in experiment [2] it was 64%; in experiment [3] it was 78%; in experiment [5], 82%; in experiment [6] it was 84%. For the same compound, the IC50 in experiment [7] (read-out: IC50) is 10.8 nM.
Regarding `O=c1cc(-c2ccccc2Br)oc2c1ccc1ccccc12`, the inhibition in experiment [1] worked out at 51%; in experiment [2], 66%; in experiment [3] it was 79%; in experiment [5] it was 81%; in experiment [6] it was 83%. Besides, in experiment [7] (read-out: IC50), the IC50 is 11 nM.
As to `O=c1cc(-c2cccc(Cl)c2)oc2c1ccc1ccccc12`, the inhibition came to 51% in experiment [1]; 68% in experiment [2]; 80% in experiment [3]; 83% in experiment [5]; 85% in experiment [6]. Besides, the IC50 in experiment [7] (read-out: IC50) was 6.99 nM.
For the compound `O=c1cc(-c2cc(F)cc(C(F)(F)F)c2)oc2c1ccc1ccccc12`, the inhibition in experiment [1] was 27%; in experiment [2], 38%; in experiment [3], 41%; in experiment [5], 54%; in experiment [6], 62%. Further, the IC50 in experiment [7] (read-out: IC50) was found to be 43 nM.
As to `CC(=O)Oc1cccc(-c2cc(=O)c3ccc4ccccc4c3o2)c1`, the inhibition in experiment [1] came to 23%; in experiment [2], 27%; in experiment [3], 36%; in experiment [5], 47%; in experiment [6], 55%. In addition, the half-inhibitory concentration (IC50) entry in experiment [7] is recorded as “Not Active”.
With `O=c1cc(-c2cc([N+](=O)[O-])cc([N+](=O)[O-])c2)oc2c1ccc1ccccc12`, the inhibition in experiment [1] is 41%; in experiment [2], 54%; in experiment [3] it was 72%; in experiment [5] it was 75%; in experiment [6] it was 76%. Further, the IC50 in experiment [7] (read-out: IC50) stood at 30 nM.
Take `O=c1cc(-c2ccc(F)c(C(F)(F)F)c2)oc2c1ccc1ccccc12`: the inhibition in experiment [1] came out at 21%; in experiment [2] it was 34%; in experiment [3], 43%; in experiment [5], 55%; in experiment [6] it was 63%. For the same compound, the IC50 in experiment [7] (read-out: IC50) is 43 nM.
Turning to `Cc1ccc(-c2cc(=O)c3ccc4ccccc4c3o2)cc1`, the inhibition is 14% in experiment [1]; 18% in experiment [2]; 24% in experiment [3]; 31% in experiment [5]; 34% in experiment [6]. Further, in experiment [7], the half-inhibitory concentration (IC50) entry was “Not Active”.
Take `O=c1cc(-c2ccccc2I)oc2c1ccc1ccccc12`: the inhibition is 46% in experiment [1]; 64% in experiment [2]; 78% in experiment [3]; 79% in experiment [5]; 80% in experiment [6]. Besides, in experiment [7] (read-out: IC50), the IC50 was found to be 16.1 nM.
For the compound `O=c1cc(-c2ccc([N+](=O)[O-])cc2)oc2c1ccc1ccccc12`, the inhibition is 35% in experiment [1]; 47% in experiment [2]; 68% in experiment [3]; 69% in experiment [5]; 70% in experiment [6]. Also, the IC50 in experiment [7] (read-out: IC50) stood at 37.3 nM.
